Test results reported in patent publication US11542235B2, “Herbicidal 3-azaspiro[5.5] undecane-8, 10-dione compounds” (SYNGENTA PARTICIPATIONS AG, priority 2018, dated 2023).

Legend:
Format in all cases: in vivo
wheat = assay: Post-emergence crop phytotoxicity, wheat, with or without safener CQC
Protocol: (§1) Seeds of a variety of test species are sown in standard soil in pots (Lolium perenne (LOLPE), Setaria faberi (SETFA), Alopecurus myosuroides (ALOMY), Echinochloa crus-galli (ECHCG), Avena fatua (AVEFA)). After cultivation for one day (pre-emergence) or after 8 days cultivation (post-emergence) under controlled conditions in a glasshouse (at 24/16° C., day/night; 14 hours light; 65% humidity), the plants are sprayed with an aqueous spray solution derived from the formulation of the technical active ingredient in acetone/water (50:50) solution containing 0.5% Tween 20 (polyoxyethelyene sorbitan monolaurate, CAS RN 9005-64-5). Compounds are applied at […]. The test plants are then grown in a glasshouse under controlled conditions in a glasshouse (at 24/16° C., day/night; 14 hours light; 65% humidity) and watered twice daily. After 13 days for pre and post-emergence, the test is evaluated for the percentage damage caused to the plant. The biological activities are shown in the following table on a five point scale (5=80-100%; 4=60-79%; 3=40-59%; 2=20-39%; 1=0-19%).
(§2) Using procedures outlines above, wheat and barley crop plants are treated, along with two weed species Avena fatua (AVEFA) and Lolium multiflorum (LOLPE) post-emergence with compound A2 of the present invention or comparator compound C1 (Compound A-38 from WO2014/096289) at the application rates indicated. The compounds were also applied in conjunction with the safener compound cloquintocet-mexyl (CQC) at 50 g/ha.

barley = assay: Post-emergence crop phytotoxicity, barley, with or without safener CQC
Protocol: as §1, §2

Avena fatua (AVEFA) [1] = assay: Post-emergence weed phytotoxicity, Avena fatua, with or without safener CQC
Protocol: as §1, §2

Lolium multiflorum = assay: Post-emergence weed phytotoxicity, Lolium multiflorum, with or without safener CQC
Protocol: as §1, §2

Lolium perenne (LOLPE) = assay: Glasshouse herbicidal test, pre- and post-emergence, Lolium perenne; conditions: 250 g/h, evaluated after 13 days, five point scale
In short: (§3)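 Seeds are sown in pots, grown at 24/16 °C day/night with 14 h light and 65% humidity, then sprayed at day 1 (pre-emergence) or day 8 (post-emergence). The rate is 250 g/h in acetone/water 50:50 with 0.5% Tween 20. Damage is assessed 13 days later on a 1–5 scale.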

Setaria faberi (SETFA) = assay: Glasshouse herbicidal test, pre- and post-emergence, Setaria faberi; conditions: pre-emergence, 250 g/h, evaluated after 13 days, five point scale
In short: as §3

[2] = system: Alopecurus myosuroides (ALOMY); assay: Glasshouse herbicidal test, pre- and post-emergence, Alopecurus myosuroides; conditions: 250 g/h, evaluated after 13 days, five point scale
In short: as §3

[3] = system: Echinochloa crus-galli (ECHCG); assay: Glasshouse herbicidal test, pre- and post-emergence, Echinochloa crus-galli; conditions: 250 g/h, evaluated after 13 days, five point scale
In short: as §3

Avena fatua (AVEFA) [4] = assay: Glasshouse herbicidal test, pre- and post-emergence, Avena fatua; conditions: 250 g/h, evaluated after 13 days, five point scale
In short: as §3

[5] = 60 g/ha + safener cloquintocet-mexyl (CQC) at 50 g/ha

SMILES	% phytotoxicity, Wheat (wheat; 30 g/ha) [%]	% phytotoxicity, Wheat (wheat; 60 g/ha) [%]	% phytotoxicity, Wheat (wheat; [5]) [%]	% phytotoxicity, Barley (barley; 30 g/ha) [%]	% phytotoxicity, Barley (barley; 60 g/ha) [%]	% phytotoxicity, Barley (barley; [5]) [%]	% phytotoxicity, AVENA (Avena fatua (AVEFA) [1]; 30 g/ha) [%]	% phytotoxicity, AVENA (Avena fatua (AVEFA) [1]; 60 g/ha) [%]	% phytotoxicity, AVENA (Avena fatua (AVEFA) [1]; [5]) [%]	% phytotoxicity, LOLMU (Lolium multiflorum; 30 g/ha) [%]	% phytotoxicity, LOLMU (Lolium multiflorum; 60 g/ha) [%]	% phytotoxicity, LOLMU (Lolium multiflorum; [5]) [%]	also measured
CC#Cc1cc(C)c(C2C(=O)CC3(CCOCC3)CC2=O)c(C)c1 [Compound C1, reference compound]	25	75	50	5	90	18	65	90	80	98	100	100	–
CC#Cc1cc(C)c(C2C(=O)CC3(CCN(C(C)=O)CC3)CC2=O)c(C)c1 [Compound A2, 3-acetyl-9-(2,6-dimethyl-4-prop-1-ynyl-phenyl)-3-azaspiro[5.5]undecane-8,10-dione]	5	15	5	0	15	0	75	92	92	98	100	100	percentage damage caused to the plant, LOLPE POST (Lolium perenne (LOLPE); post-emergence): 5 (5=80-100%); percentage damage caused to the plant, LOLPE PRE (Lolium perenne (LOLPE); pre-emergence): 5 (5=80-100%); percentage damage caused to the plant, SETFA PRE (Setaria faberi (SETFA)): 5 (5=80-100%); percentage damage caused to the plant, ALOMY POST ([2]; post-emergence): 5 (5=80-100%); percentage damage caused to the plant, ALOMY PRE ([2]; pre-emergence): 5 (5=80-100%); percentage damage caused to the plant, ECHCG POST ([3]; post-emergence): 5 (5=80-100%); percentage damage caused to the plant, ECHCG PRE ([3]; pre-emergence): 5 (5=80-100%); percentage damage caused to the plant, AVEFA POST (Avena fatua (AVEFA) [4]; post-emergence): 5 (5=80-100%); percentage damage caused to the plant, AVEFA PRE (Avena fatua (AVEFA) [4]; pre-emergence): 5 (5=80-100%); damage to the wheat crop compared to prior art compound C1 (wheat; rates of Table B2): significantly less damaging; damage to the barley crop compared to prior art compound C1 (barley; rates of Table B2): significantly less damaging
